Assay [1] deals with Ehrlich. The assay is described as follows: Antitumor activity against mouse Ehrlich carcinoma cells xenografted in white mouse assessed as growth inhibition at 50 mg/kg, ip for 7 days. In kind it is functional. The settings on record: 168 h, read-out: GI.
In assay [2] the test system is Ehrlich. The assay is described as follows: Antitumor activity against mouse Ehrlich carcinoma cells xenografted in white mouse assessed as growth inhibition at 20 mg/kg, ip for 7 days. The settings on record: 168 h, read-out: GI. In kind it is functional.
The subject of assay [3] is Mycobacterium tuberculosis. The assay is described as follows: Antibacterial activity against Mycobacterium tuberculosis H37Rv. In kind it is functional.
In another assay the test system is P388. Description: Cytotoxicity against mouse P388 cells. The class given is functional, cell-based.
The test system of assay [4] is Candida albicans. The assay is described as follows: Antifungal activity against Candida albicans assessed as inhibition zone at 120 ug/disk. The class given is functional. The settings on record: read-out: IZ.
Assay [5] concerns Bacillus subtilis. The assay is described as follows: […] activity against Bacillus subtilis assessed as inhibition zone at 120 ug/disk. The settings on record: read-out: IZ. The class given is functional.
The next assay concerns L5178Y. Description: Cytotoxicity against mouse L5178Y cells by MTT assay. The class given is functional, cell-based. Background: Formazan colour is commonly taken as a measure of viable cells.
A further assay concerns MCF7. The assay is described as follows: Cytotoxicity against human MCF7 cells by MTT assay. The class given is functional, cell-based.
The subject of assay [6] is A549. Description: Cytotoxicity against human A549 cells by MTT assay. In kind it is functional, cell-based.
Another assay has as its system SMMC-7721. Description: Cytotoxicity against human SMMC7721 cells by MTT assay. The class given is functional, cell-based.
In a further assay the test system is SW480. Description: Cytotoxicity against human SW480 cells by MTT assay. The class given is functional, cell-based.
A further assay concerns HL-60. The assay is described as follows: Cytotoxicity against human HL60 cells by MTT assay. The class given is functional, cell-based.
The test system of the next assay is Saccharomyces cerevisiae. Description: Antimicrobial activity against Saccharomyces cerevisiae. The class given is functional.
Assay [7] has as its system Colletotrichum gloeosporioides. Description: Antimicrobial activity against Glomerella cingulata. In kind it is functional.
The subject of assay [8] is Trichophyton mentagrophytes. Description: Antimicrobial activity against Trichophyton mentagrophytes. The class given is functional.
Another assay concerns Proteus vulgaris. The assay is described as follows: Antibacterial activity against Proteus vulgaris. The class given is functional.
Assay [9] relates to Cryptococcus neoformans. The assay is described as follows: Antimicrobial activity against Cryptococcus neoformans. In kind it is functional.
Assay [10] deals with Bacillus subtilis. The assay is described as follows: Antibacterial activity against Bacillus subtilis. In kind it is functional.
In another assay the test system is Trichophyton rubrum. Description: Antifungal activity against Trichophyton rubrum. In kind it is functional.
The next assay has as its system Pyricularia oryzae. Description: Antimicrobial activity against Pyricularia orizae. The class given is functional.
The subject of assay [11] is Candida albicans. The assay is described as follows: Antifungal activity against Candida albicans. The class given is functional.
A further assay relates to Mycobacterium. The assay is described as follows: Antibacterial activity against Mycobacterium B5. In kind it is functional.
For assay [12], the system named is Ehrlich. The assay is described as follows: Antitumor activity against mouse Ehrlich carcinoma cells xenografted in white mouse assessed as growth inhibition at 0.2 mg/kg, ip for 7 days. The class given is functional. Conditions: 168 h, read-out: GI.
For assay [13], the system named is Clavibacter michiganensis. Description: Antibacterial activity against Clavibacter michiganensis. In kind it is functional.
In assay [14] the test system is Xanthomonas citri pv. malvacearum. The assay is described as follows: Antibacterial activity against Xanthomonas malvacearum. In kind it is functional.
The next assay deals with K562. The assay is described as follows: Cytotoxicity against human K562 cells assessed as decrease in cell viability after 48 hrs by MTT assay. In kind it is functional, cell-based. Conditions: K562, 48 h.
Assay [15] relates to A549. Description: Cytotoxicity against human A549 cells assessed as decrease in cell viability after 48 hrs by MTT assay. In kind it is functional, cell-based. The settings on record: A549, 48 h.
The test system of the next assay is Human alphaherpesvirus 1. Description: Antiviral activity against HSV1. The class given is functional, organism-based.
In a further assay the test system is Influenza A virus. The assay is described as follows: Antiviral activity against Influenza A virus (A/Hanfang/359/95(H3N2)). The class given is functional, organism-based.
The test system of the next assay is HeLa S3. Description: Cytotoxicity against human HeLaS3 cells. The class given is functional, cell-based.
Assay [16] relates to Candida albicans. Description: Antifungal activity against Candida albicans SC5314. In kind it is functional.
Assay [17] concerns Cryptococcus neoformans. The assay is described as follows: Antifungal activity against Cryptococcus neoformans. In kind it is functional.
The subject of assay [18] is Candida albicans. Description: Antifungal activity against Candida albicans YO109. In kind it is functional.

Converted amounts (≈) assume the structure as drawn.

As for `COc1[nH]nc2nncnc12`, the inhibition in vivo at 50 mg/kg with Ehrlich [1] amounted to 83%.

With `COc1nnc2n(C)ncnc1-2` [PSEUDOIODININE], the inhibition in vivo at 20 mg/kg in the assay on Ehrlich [2] was determined as 64%.

For the molecule `COc1cc(C2(c3ncc[nH]3)SSSCC2O)ccc1O` (single isomer, unassigned; (+)), in [3], the Activity stood at 10%. Moreover, the half-maximal inhibitory concentration (IC50) (in general, the concentration that gives 50% inhibition) with P388 amounted to 21.6 µM. For the same molecule, the zone of inhibition at 120 µg/disc in the assay with Candida albicans [4] and in the assay with Bacillus subtilis [5] was 4 mm each time.

`Nc1nsc(C(=O)c2ccc(O)cc2)n1` registered an IC50 in the assay with L5178Y of 410 nM.

Turning to `CN1CC[C@]23c4ccccc4N[C@H]1[C@@]21CCN2CN4c5ccccc5[C@@]56CCN(C)[C@@]45N(c4c6cccc41)[C@@H]23`, the IC50 in the assay with MCF7, with A549 [6], in the assay with SMMC-7721, in the assay with SW480 and in the assay on HL-60 was > 40 µM throughout.

Take `C1SSCSSS1`: the MIC – broadly, the lowest concentration found to suppress growth – came out at 6.25 µg/mL (≈ 33.2 µM) with Saccharomyces cerevisiae; 12.5 µg/mL (≈ 66.4 µM) in assay [7]; 3.12 µg/mL (≈ 16.6 µM) in assay [8]; 50 µg/mL (≈ 265 µM) against Proteus vulgaris; 6.25 µg/mL (≈ 33.2 µM) in the assay with Cryptococcus neoformans [9]; 50 µg/mL (≈ 265 µM) against Bacillus subtilis [10]. In addition, the MIC against Trichophyton rubrum amounted to 3.12 µg/mL (≈ 16.6 µM); in the assay with Pyricularia oryzae it was 12.5 µg/mL (≈ 66.4 µM); in the assay on Candida albicans [11], 6.25 µg/mL (≈ 33.2 µM).

For `COc1nnc2nn(C)cnc1-2`, the MIC (against Mycobacterium; in [13]; in [14]) was 5 to 50 mg/mL (≈ 30300 to 303000 µM) in each case. In addition, the inhibition in vivo at 0.2 mg/kg in the assay on Ehrlich [12] was determined as 40%.

Consider `CC1=C(c2ccccc2)N(C)NC(=O)N1`, for which the IC50 in the assay on K562 stood at 66.9 µM; in the assay with A549 [15] it was 21.8 µM.

`C=C[C@@H](O)Cc1nsc(C2=CCCS[C@]23C(=O)Nc2ccccc23)n1`: the IC50 with Human alphaherpesvirus 1 and in the assay on Influenza A virus was 33.3 µM each time.

As for `CN1CN2CCCN3CCCC(=N1)C32` (centres undefined), in the assay on HeLa S3, half-maximal inhibition (IC50) required 6.8 µg/mL (≈ 35 µM).

For `CC[C@H]1CC/C(=C2\C(=O)O[C@H](C)C2=O)O1`, the MIC80 – broadly, an inhibitory concentration at the 80% level, which refers to growth in some studies and to a panel of isolates in others – in the assay with Candida albicans [16] was determined as 32 µg/mL (≈ 152 µM); against Trichophyton rubrum, 64 µg/mL (≈ 304 µM); in the assay with Cryptococcus neoformans [17], 16 µg/mL (≈ 76.1 µM); against Candida albicans [18] it was 8 µg/mL (≈ 38.1 µM).
